The record followed here is PubChem BioAssay AID180 (DTP/NCI, 2004).

The subject of the experiment is BDF1 mice, Adenocarcinoma 755 s.c., tumor weight T/C. Kind of experiment: NCI In Vivo Anticancer Drug Screen. Data for tumor model Adenocarcinoma 755 (subcutaneous) in B6D2F1 (BDF1) mice. The following applies: endpoint: mean tumor weight, higher = larger tumour. Put shortly: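 Tumor-bearing mice receive test compound while controls get vehicle alone. Antitumor effect is scored from survival or tumor dimensions as a T/C quotient.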

Setting [1] is: dose: 31.25 mg/kg/injection, schedule: Q01DX011 (ip), vehicle: methylcellulose (MC).
[2] abbreviates: dose: 62.5 mg/kg/injection, schedule: Q01DX011 (ip), vehicle: methylcellulose (MC).
[3] abbreviates: dose: 125.0 mg/kg/injection, schedule: Q01DX011 (ip), vehicle: methylcellulose (MC).
The mark [4] stands for this setting: dose: 15.0 mg/kg/injection, schedule: Q01DX011 (ip), vehicle: methylcellulose (MC).
Where [5] appears, read: dose: 31.0 mg/kg/injection, schedule: Q01DX011 (ip), vehicle: methylcellulose (MC).
Where [6] appears, read: dose: 62.0 mg/kg/injection, schedule: Q01DX011 (ip), vehicle: methylcellulose (MC).
Setting [7] is: dose: 2.0 mg/kg/injection, schedule: Q01DX011 (ip), vehicle: carboxymethylcellulose (CMC).
Setting [8] is: dose: 25.0 mg/kg/injection, schedule: Q01DX011 (ip), vehicle: carboxymethylcellulose (CMC).

“And” between values parts separate entries of the source, which are not always exact repeats. Equal entries are not always repeated.

Take `CCNc1nncs1`: the T/C (commonly the result in the treated group divided by that in the control group, in per cent) (dose: 8.63 mg/kg/injection, schedule: Q01DX011 (ip), vehicle: carboxymethylcellulose (CMC)) was 65 % of control; the T/C (dose: 14.22 mg/kg/injection, schedule: Q01DX011 (ip), vehicle: carboxymethylcellulose (CMC)) is 73 % of control; the T/C (dose: 17.25 mg/kg/injection, schedule: Q01DX011 (ip), vehicle: carboxymethylcellulose (CMC)) was 77 % of control; the T/C (dose: 28.45 mg/kg/injection, schedule: Q01DX011 (ip), vehicle: carboxymethylcellulose (CMC)) is 84 % of control; the T/C under setting [1] is 62 % of control; the T/C (dose: 34.5 mg/kg/injection, schedule: Q01DX011 (ip), vehicle: carboxymethylcellulose (CMC)) was 101 % of control. Besides, the T/C is 89 % of control and 80 % of control and 84 % of control (dose: 56.9 mg/kg/injection, schedule: Q01DX011 (ip), vehicle: carboxymethylcellulose (CMC)); 49 % of control under setting [2]; 103 % of control (dose: 69.0 mg/kg/injection, schedule: Q01DX011 (ip), vehicle: carboxymethylcellulose (CMC)); 58 % of control and 75 % of control (dose: 75.8 mg/kg/injection, schedule: Q01DX011 (ip), vehicle: carboxymethylcellulose (CMC)); 6 % of control under setting [3].
For the molecule `O=C1c2ccccc2C(=O)c2c1c(O)c1ccccc1c2O`, the T/C is, setting by setting: (dose: 100.0 mg/kg/injection, schedule: Q#A X022 (im), vehicle: other) 92 % of control; (dose: 100.0 mg/kg/injection, schedule: Q#A X022 (sc), vehicle: other) 82 % of control; (dose: 200.0 mg/kg/injection, schedule: Q#A X022 (im), vehicle: other) 79 % of control; (dose: 200.0 mg/kg/injection, schedule: Q#A X022 (sc), vehicle: other) 82 % of control; (dose: 300.0 mg/kg/injection, schedule: Q#A X022 (im), vehicle: other) 73 % of control; (dose: 300.0 mg/kg/injection, schedule: Q#A X022 (ip), vehicle: other) 29 % of control. In addition, the T/C (dose: 300.0 mg/kg/injection, schedule: Q#A X022 (sc), vehicle: other) was 52 % of control; the T/C (dose: 400.0 mg/kg/injection, schedule: Q#A X022 (im), vehicle: other) is 73 % of control; the T/C (dose: 400.0 mg/kg/injection, schedule: Q#A X022 (sc), vehicle: other) was 68 % of control.
As to `Cc1cnc(SCc2ccc(Cl)cc2Cl)nc1Nc1ccc(Cl)c(Cl)c1`, the T/C reads like this: under setting [4], 74 % of control; under setting [5], 97 % of control; under setting [6], 69 % of control.
On to `Nc1nc2nc(/N=N/SCCC(=O)O)[nH]c2c(=O)[nH]1`, for which the T/C was 54 % of control (dose: 37.5 mg/kg/injection, schedule: Q01DX011 (ip), vehicle: methylcellulose (MC)) and 45 % of control (dose: 75.0 mg/kg/injection, schedule: Q01DX011 (ip), vehicle: methylcellulose (MC)).
Turning to `CCCn1cnc2c(SC(C)C)nc(N)nc21`, the T/C runs as follows: (dose: 3.1 mg/kg/injection, schedule: Q01DX011 (ip), vehicle: methylcellulose (MC)) 16 % of control; (dose: 6.25 mg/kg/injection, schedule: Q01DX011 (ip), vehicle: methylcellulose (MC)) 2 % of control.
Regarding `Nc1nc(=S)c2ncn(C3OC(CO)C(O)C3O)c2[nH]1` (stereo not drawn), the T/C was 43 % of control (dose: 0.03 mg/kg/injection, schedule: Q01DX011 (ip), vehicle: carboxymethylcellulose (CMC)); 90 % of control (dose: 0.07 mg/kg/injection, schedule: Q01DX011 (ip), vehicle: carboxymethylcellulose (CMC)); 81 % of control (dose: 0.13 mg/kg/injection, schedule: Q01DX011 (ip), vehicle: carboxymethylcellulose (CMC)); 29 % of control and 37 % of control (dose: 0.5 mg/kg/injection, schedule: Q01DX011 (ip), vehicle: carboxymethylcellulose (CMC)); 6 % of control and 7 % of control (dose: 1.0 mg/kg/injection, schedule: Q01DX011 (ip), vehicle: carboxymethylcellulose (CMC)); 4 % of control (dose: 1.5 mg/kg/injection, schedule: Q01DX011 (ip), vehicle: carboxymethylcellulose (CMC)). Besides, the T/C is 2 % of control (dose: 1.5 mg/kg/injection, schedule: Q01DX011 (ip), vehicle: methylcellulose (MC)); 4 % of control under setting [7]; 3 % of control (dose: 3.0 mg/kg/injection, schedule: Q01DX011 (ip), vehicle: carboxymethylcellulose (CMC)); 1 % of control (dose: 3.0 mg/kg/injection, schedule: Q01DX011 (ip), vehicle: methylcellulose (MC)).
Turning to `Cc1ccc(N=Nc2c(S(=O)(=O)O)cc3cc(NC(=O)Nc4ccc5c(O)c(N=Nc6ccc7cc(S(=O)(=O)O)ccc7c6)c(S(=O)(=O)O)cc5c4)ccc3c2O)cc1`, the T/C is, setting by setting: (dose: 45.0 mg/kg/injection, schedule: Q01DX011 (ip), vehicle: methylcellulose (MC)) 66 % of control; (dose: 65.0 mg/kg/injection, schedule: Q01DX011 (ip), vehicle: methylcellulose (MC)) 42 % of control; (dose: 150.0 mg/kg/injection, schedule: Q01DX011 (ip), vehicle: methylcellulose (MC)) 30 % of control.
In the case of `CN(Cc1ccccc1)N=Nc1n[nH]nc1C(N)=O`, the T/C by setting is: (dose: 50.0 mg/kg/injection, schedule: Q01DX011 (ip), vehicle: carboxymethylcellulose (CMC)) 75 % of control; (dose: 100.0 mg/kg/injection, schedule: Q01DX011 (ip), vehicle: carboxymethylcellulose (CMC)) 91 % of control; (dose: 200.0 mg/kg/injection, schedule: Q01DX011 (ip), vehicle: carboxymethylcellulose (CMC)) 56 % of control.
As for `O=c1[nH]c(S(=O)(=O)F)nc2nc[nH]c12`, the T/C by setting is: under setting [8], 104 % of control; (dose: 75.0 mg/kg/injection, schedule: Q01DX011 (ip), vehicle: carboxymethylcellulose (CMC)) 53 % of control.
Consider `C=CCn1cnc2c(=S)nc[nH]c21`, for which the T/C is, setting by setting: (dose: 0.37 mg/kg/injection, schedule: Q01DX011 (ip), vehicle: saline) 49 % of control; (dose: 0.5 mg/kg/injection, schedule: Q01DX011 (ip), vehicle: saline) 82 % of control; (dose: 0.75 mg/kg/injection, schedule: Q01DX011 (ip), vehicle: saline) 72 % of control; (dose: 1.0 mg/kg/injection, schedule: Q01DX011 (ip), vehicle: saline) 48 % of control; (dose: 2.0 mg/kg/injection, schedule: Q01DX011 (ip), vehicle: alkali diluted with saline) 7 % of control; (dose: 2.25 mg/kg/injection, schedule: Q01DX011 (ip), vehicle: alkali diluted with saline) 3 % of control. In addition, the T/C was 5 % of control (dose: 2.75 mg/kg/injection, schedule: Q01DX011 (ip), vehicle: alkali diluted with saline); 9 % of control (dose: 3.0 mg/kg/injection, schedule: Q01DX011 (ip), vehicle: alkali diluted with saline); 1 % of control (dose: 6.0 mg/kg/injection, schedule: Q01DX011 (ip), vehicle: alkali diluted with saline); 2 % of control (dose: 12.5 mg/kg/injection, schedule: Q01DX011 (ip), vehicle: alkali diluted with saline).
As to `CCCCNS(=O)(=O)c1ncnc2nc[nH]c12`, the T/C is, setting by setting: under setting [7], 115 % of control; (dose: 6.0 mg/kg/injection, schedule: Q01DX011 (ip), vehicle: carboxymethylcellulose (CMC)) 44 % of control; (dose: 12.0 mg/kg/injection, schedule: Q01DX011 (ip), vehicle: carboxymethylcellulose (CMC)) 13 % of control.
`CCOC1CCCC(n2cnc3c(Cl)ncnc32)O1` (stereo not drawn): the T/C was 64 % of control (dose: 7.81 mg/kg/injection, schedule: Q01DX011 (ip), vehicle: methylcellulose (MC)); 65 % of control (dose: 15.63 mg/kg/injection, schedule: Q01DX011 (ip), vehicle: methylcellulose (MC)); 43 % of control under setting [1]; 3 % of control and 17 % of control under setting [2].
Regarding `CC(C)CN1CC(C)C(=O)N(c2ccccc2)C1=S` (stereo not drawn), the T/C was 51 % of control under setting [4], 89 % of control under setting [5], 79 % of control under setting [6] and 57 % of control under setting [3].
`O=C(O)/C=C\C(=O)Nc1nccs1`: the T/C under setting [8] was 80 % of control.
Consider `Nc1nnnc2nc[nH]c12`, for which the T/C (dose: 12.5 mg/kg/injection, schedule: Q01DX011 (ip), vehicle: carboxymethylcellulose (CMC)) was 75 % of control.
